From patent EP0428103A2, “Prevention of glycoprotein enveloped virus infectivity by pyridyloxazole-2-ones” (MERRELL DOW PHARMACEUTICALS INC., priority 1989, dated 1991)
Where a name gives a salt, the structure may show the parent alone.

Experiments:
RF strain of HIV-1 = test: p24 antigen expression from HIV infected T-lymphocytes; assay type: cell-based; details: C8166 T cell line; for p24 Antigen: culture fluid after 3 days
Experimental: Cells (C8166 T cell line) were pretreated with test compounds at appropriate concentrations for 3 hours prior to virus (RF strain of HIV-1) absorption. Low multiplicity of infection was used and virus absorption period was 1 hour at room temperature. the cells were washed X1 in PBS and resuspended in fresh medium containing the appropriate concentrations of test compound. Cells incubated at 37°C and after 3 days culture fluid was assayed for p24 antigen as a measure of viral replication. Because these compounds were tested as the free base, they had to be taken up in DMSO and therefore a series of DMSO virus controls were needed for comparison.

[1] = system: Moloney murine leukemia virus (MoLV); test: in vitro XC plaque assay; assay type: cell-based; details: mouse SC-1 cells; for Mean No. of Foci: control 84 foci
Experimental: This assay was performed according to the method of Rowe et al. (Virology, 1970, 42, 1136-39) as previously described by L. Hsu, et al. (J. Virological Methods, 1980, 1, 167-77) and T. L. Bowlin and M. R. Proffitt (J. Interferon Res., 1983, 3(1), 19-31). Mouse SC-1 cells (fibroblast) (10⁵) were seeded into each well of 6-well cluster plates (Costar #3506) in 4 ml Minimum Essential Medium (MEM) with 10% Fetal Calf Serum (FCS). Following an 18 hour incubation period (37°C), Moloney murine leukemia virus (MoLV) was applied at a predetermined titer to give optimal (i.e. countable) numbers of virus plaques. Compounds were added 2 hours prior to addition of the virus. Three days later the culture medium was removed, the SC-1 cell monolayers were exposed to UV irradiation (1800 ergs), and rat XC cells (10⁶) were seeded into each well in 4 ml MEM. Following an additional 3 day incubation (37°C), these cells were fixed with ethyl alcohol (95%) and stained with 0.3% crystal violet. Plaques were then counted under low magnification.

HIV = details: CD4+ cells, Fields, et al., Nature, Vol. 333, 19 May 1988, cited from earlier work

SMILES | p24 Antigen (RF strain of HIV-1; 1 µg/ml, DMSO 0.01 %, vehicle control 1027 pg/ml) [pg/mL] | p24 Antigen (RF strain of HIV-1; 10 µg/ml, DMSO 0.1 %, vehicle control 2408 pg/ml) [pg/mL] | inhibition at 1 µg/mL (RF strain of HIV-1; Human immunodeficiency virus 1, 72 h, 1 µg/ml, DMSO 0.01 %, 3 days) [%] | inhibition at 10 µg/mL (RF strain of HIV-1; Human immunodeficiency virus 1, 72 h, 10 µg/ml, DMSO 0.1 %, 3 days) [%] | Mean No. of Foci ([1]; 0.10 µg/ml) | Mean No. of Foci ([1]; 0.25 µg/ml) | Mean No. of Foci ([1]; 0.5 µg/ml) | Mean No. of Foci ([1]; 0.75 µg/ml) | Mean No. of Foci ([1]; 1 µg/ml, compound added 2 hours prior to virus) | inhibition at 0.1 µg/mL ([1]; Murine leukemia virus, SC1, 0.10 µg/ml) [%] | inhibition at 0.25 µg/mL ([1]; Murine leukemia virus, SC1, 0.25 µg/ml) [%] | inhibition at 0.5 µg/mL ([1]; Murine leukemia virus, SC1, 0.5 µg/ml) [%] | inhibition at 0.75 µg/mL ([1]; Murine leukemia virus, SC1, 0.75 µg/ml) [%] | inhibition at 1 µg/mL ([1]; Murine leukemia virus, SC1, 1 µg/ml, compound added 2 hours prior to virus) [%] | HIV cell surface binding (HIV) | viral infectivity (HIV; accumulation of virus particles at the cell surface)
CCCc1[nH]c(=O)oc1-c1ccncc1 [Test Compound, 4-propyl-5-(4-pyridinyl)-2(3H)-oxazolone] | 613 | 244 | 41 | 90 | 85 | 67 | 68 | 63 | 33 | 0 | 20 | 19 | 25 | 60.7 | – | –
CC1CNCCN1S(=O)(=O)c1cccc2cnccc12 (stereo not shown) [1,5-isoquinolinesulphonyl-2-methylpiperazine dihydrochloride] | – | – | – | – | – | – | – | – | – | – | – | – | – | – | does not interfere | inhibition of viral infectivity
